# From publication PMC11815855, “Exploring the Structure–Activity Relationships of Albumin-Targeted Picoplatin-Based Platinum(IV) Prodrugs” (Inorganic Chemistry, 2025)
# Key:
# [1] = Serum pharmacokinetics and tumor/organ distribution (Pt by ICP-MS) in CT26-bearing Balb/c mice; type: in vivo; details: single i.v. dose equimolar to 20 mg/kg picoplatin
# Method: CT-26 cells (5 × 10^5 cells in 50 μL of serum-free medium) were subcutaneously injected into the right flank of male Balb/c mice. […]. […] and the three maleimide-containing platinum(IV) complexes were dissolved in 30% PEG400-containing 0.9% NaCl and PBS (Cytiva, USA), respectively. […]. After a 10 min clotting period of the blood at RT, the serum was separated by centrifugation (900 g, 10 min, repeated twice). Tumor and organ accumulation of the drug was assessed at 5 and 24 h postadministration (2 animals per time point). Mice were euthanized via cervical dislocation, and their tumors and organs were excised. All collected samples were stored at −20 °C until further processing for Pt concentration analysis by ICP-MS. […] Approximately 15–30 mg of tissue (gravimetrically measured) was digested with 2 mL of 20% nitric acid and 100 μL of H2O2 in an open-vessel graphite digestion system (Labter, ODLAB; AHF Analysentechnik AG, Germany), using PFA vials and lids. […] Quantification of total Pt content was performed on a quadrupole-based ICP-MS instrument (Agilent 7800, Agilent Technologies, Tokyo, Japan), equipped with an Agilent SPS 4 autosampler and a MicroMist nebulizer. […] Rh was used as the internal standard for Pt quantification. […]
# [2] = system: CT26 tumors; experiment: Anticancer activity in vivo, CT26-bearing Balb/c mice; details: i.v. on days 3 and 10, dose equimolar to 20 mg/kg picoplatin
# Method: Ten-week-old Balb/c mice were purchased from Envigo Laboratories (San Pietro al Natisone, Italy). […] Animals were controlled for distress development every day, and tumor size was assessed regularly by caliper measurement. Tumor volume was calculated using the formula: (length × width^2)/2.
# CT26 cells (5 × 10^5 in serum-free medium) were injected subcutaneously into the right flank of male Balb/c mice. Therapy was started when tumor nodules were palpable (day 3). […] Mice were sacrificed by cervical dislocation in the case of a tumor length >20 mm, tumor ulceration, or other signs for distress.
smiles,measurement,setting,value
CC(=O)[O][Pt]([Cl])([Cl])[O]C(=O)NCCN1C(=O)C=CC1=O.Cc1ccccn1.N [Pico-Mal],platinum levels in the kidneys,[1],higher
same,impact on tumor growth,[2],inactive
